Experimental data: PMC11823630, “In vitro potentiation of tetracyclines in Pseudomonas aeruginosa by RW01, a new cyclic peptide” (Antimicrobial Agents and Chemotherapy, 2024)
In brackets after ≈: the same amount, converted by molar mass. Read-outs that look alike come from different tables or passages of the source.

How the values were obtained:
[1] = tested on: P. aeruginosa 125A; test: MIC, CLSI broth microdilution in BD Phoenix AST Broth; assay type: cell-based, Pseudomonas aeruginosa; details: strain 125A; for MIC: Pseudomonas aeruginosa, agent alone, 37°C, 18–22 h, three biological replicates; for Antibiotic MIC + RW01 100 mg/L: MIC of the antibiotic with fixed 100 mg/L RW01; for Potentiation (fold): antibiotic MIC alone vs with RW01 100 mg/L; for FICI / FICI-determined effect: antibiotic with RW01 at 100 mg/L
[2] = tested on: P. aeruginosa 125B; test: as above; assay type: cell-based, Pseudomonas aeruginosa; details: strain 125B; for MIC: Pseudomonas aeruginosa, agent alone, 37°C, 18–22 h, three biological replicates; for Antibiotic MIC + RW01 100 mg/L: MIC of the antibiotic with fixed 100 mg/L RW01; for Potentiation (fold): antibiotic MIC alone vs with RW01 100 mg/L; for FICI / FICI-determined effect: antibiotic with RW01 at 100 mg/L
[3] = tested on: P. aeruginosa 41A; test: as above; assay type: cell-based, Pseudomonas aeruginosa; details: strain 41A; for MIC: Pseudomonas aeruginosa, agent alone, 37°C, 18–22 h, three biological replicates; for Antibiotic MIC + RW01 100 mg/L: MIC of the antibiotic with fixed 100 mg/L RW01; for Potentiation (fold): antibiotic MIC alone vs with RW01 100 mg/L; for FICI / FICI-determined effect: antibiotic with RW01 at 100 mg/L
[4] = tested on: P. aeruginosa 41B; test: as above; assay type: cell-based, Pseudomonas aeruginosa; details: strain 41B; for MIC: Pseudomonas aeruginosa, agent alone, 37°C, 18–22 h, three biological replicates; for Potentiation (fold): antibiotic MIC alone vs with RW01 100 mg/L; for FICI / FICI-determined effect: antibiotic with RW01 at 100 mg/L
[5] = tested on: P. aeruginosa PAO1; test: as above; assay type: cell-based, Pseudomonas aeruginosa; details: for Antibiotic MIC + RW01 100 mg/L: MIC of the antibiotic with fixed 100 mg/L RW01; for Potentiation (fold): antibiotic MIC alone vs with RW01 100 mg/L; for FICI / FICI-determined effect: antibiotic with RW01 at 100 mg/L
[6] = tested on: P. aeruginosa PAOUW; test: as above; assay type: cell-based, Pseudomonas aeruginosa; details: strain PAOUW; for MIC: agent alone, 37°C, 18–22 h, three biological replicates; for Potentiation (fold): antibiotic MIC alone vs with RW01 100 mg/L; for FICI / FICI-determined effect: antibiotic with RW01 at 100 mg/L
[7] = tested on: P. aeruginosa PAOUW∆oprF; test: as above; assay type: cell-based, Pseudomonas aeruginosa; details: for MIC: agent alone, 37°C, 18–22 h, three biological replicates; for Potentiation (fold) / FICI / FICI-determined effect: strain PAOUWΔoprF (printed PAOΔoprF); for Potentiation (fold): antibiotic MIC alone vs with RW01 100 mg/L; for FICI / FICI-determined effect: antibiotic with RW01 at 100 mg/L
[8] = tested on: P. aeruginosa PAOΔmexR; test: as above; assay type: cell-based, Pseudomonas aeruginosa; details: for Antibiotic MIC + RW01 100 mg/L / Potentiation (fold) / FICI / FICI-determined effect: strain PAOΔmexR; for Antibiotic MIC + RW01 100 mg/L: MIC of the antibiotic with fixed 100 mg/L RW01; for Potentiation (fold): antibiotic MIC alone vs with RW01 100 mg/L; for FICI / FICI-determined effect: antibiotic with RW01 at 100 mg/L
[9] = tested on: P. aeruginosa PAOΔmexZ; test: as above; assay type: cell-based, Pseudomonas aeruginosa; details: strain PAOΔmexZ; for MIC: agent alone, 37°C, 18–22 h, three biological replicates; for FICI / FICI-determined effect: antibiotic with RW01 at 100 mg/L
[10] = tested on: P. aeruginosa PAOΔoprM; test: as above; assay type: cell-based, Pseudomonas aeruginosa; details: for MIC: Pseudomonas aeruginosa; for Antibiotic MIC + RW01 100 mg/L / Potentiation (fold) / FICI / FICI-determined effect: strain PAOΔoprM; for Antibiotic MIC + RW01 100 mg/L: MIC of the antibiotic with fixed 100 mg/L RW01; for Potentiation (fold): antibiotic MIC alone vs with RW01 100 mg/L; for FICI / FICI-determined effect: antibiotic with RW01 at 100 mg/L
[11] = tested on: P. aeruginosa PAO1; test: MIC in the presence of 25% mouse serum; details: Pseudomonas aeruginosa
[12] = tested on: PAO1 mutant MIN1_RW01_4, pmrB(F124L); test: MIC, E-test on MHA; assay type: cell-based; details: Pseudomonas aeruginosa, PAO1, read-out: MIC, E-test
[13] = tested on: PAO1 mutant MIN2_RW01_1, pmrB(V215L); test: MIC, E-test on MHA; assay type: cell-based; details: Pseudomonas aeruginosa, PAO1, read-out: MIC, E-test
[14] = tested on: PAO1 mutant MIN2_RW01_3, parS(V152A); test: MIC, E-test on MHA; assay type: cell-based; details: Pseudomonas aeruginosa, PAO1, read-out: MIC, E-test
[15] = tested on: PAO1 mutant MIN4_RW01_2, pmrB(F124S); test: MIC, E-test on MHA; assay type: cell-based; details: Pseudomonas aeruginosa, PAO1, read-out: MIC, E-test
[16] = tested on: PAO1 mutant MIN4_RW01_3, pmrB(M292T); test: MIC, E-test on MHA; assay type: cell-based; details: Pseudomonas aeruginosa, PAO1, read-out: MIC, E-test
[17] = tested on: PAO1 mutant MIN4_RW01_4, pmrB(Y98N); test: MIC, E-test on MHA; assay type: cell-based; details: Pseudomonas aeruginosa, PAO1, read-out: MIC, E-test
[18] = tested on: PAO1 mutant MIN8_2, pilZ(nt18InsT); test: MIC, E-test on MHA; assay type: cell-based; details: Pseudomonas aeruginosa, PAO1, read-out: MIC, E-test
[19] = tested on: PAO1 mutant MIN8_3, pilZ(nt18InsT); test: MIC, E-test on MHA; assay type: cell-based; details: Pseudomonas aeruginosa, PAO1, read-out: MIC, E-test
[20] = tested on: PAO1 mutant MIN16_1, nalD(T43P); test: MIC, E-test on MHA; assay type: cell-based; details: Pseudomonas aeruginosa, PAO1, read-out: MIC, E-test
[21] = Pseudomonas aeruginosa, PAO1, strain PAO1, agent alone, 37°C, 18–22 h, three biological replicates, read-out: MIC
[22] = Pseudomonas aeruginosa, read-out: MIC
[23] = MIC of the antibiotic with fixed 100 mg/L RW01

`CN(C)c1ccc(O)c2c1C[C@H]1C[C@H]3[C@H](N(C)C)C(O)=C(C(N)=O)C(=O)[C@@]3(O)C(O)=C1C2=O` [Minocycline, minocycline] was tested, and the MIC [1] was 8 µg/mL, the “Antibiotic MIC + RW01 100 mg/L” value [1] was 1 µg/mL and the “Potentiation (fold)” value [1] was 8 fold. For the same compound, the FICI [1] was 0.320, the FICI-determined effect [1] was “Synergy (synergistic effect if FICI is ≤0.5)” and the MIC [2] was 8 µg/mL. For the same compound, the “Antibiotic MIC + RW01 100 mg/L” value [2] was 1 µg/mL, the “Potentiation (fold)” value [2] was 8 fold and the FICI [2] was 0.320. The FICI-determined effect [2] was “Synergy (synergistic effect if FICI is ≤0.5)”, the MIC [3] was 8 µg/mL and the “Antibiotic MIC + RW01 100 mg/L” value [3] was 2 µg/mL. The “Potentiation (fold)” value [3] was 4 fold, the FICI [3] was 0.348 and the FICI-determined effect [3] was “Synergy (synergistic effect if FICI is ≤0.5)”. The MIC [4] was 16 µg/mL, the “Potentiation (fold)” value [4] was 8 fold and the FICI [4] was 0.223. For the same compound, the FICI-determined effect [4] was “Synergy (synergistic effect if FICI is ≤0.5)”, the MIC [5, 21] was 8 to 16 µg/mL and the “Antibiotic MIC + RW01 100 mg/L” value ([5]; strain PAO1) was 2 µg/mL. For the same compound, the MIC ([5]; strain PAO1, agent alone, 37°C, 18–22 h, three biological replicates) was 8 µg/mL, the “Potentiation (fold)” value ([5]; strain PAO1) was 4 fold and the FICI ([5]; strain PAO1) was 0.445. The FICI-determined effect ([5]; strain PAO1) was “Synergy (synergistic effect if FICI is ≤0.5)”, the MIC [6, 22] was 16 µg/mL and the MIC [6] was 8 µg/mL. For the same compound, the “Potentiation (fold)” value [6] was 8 fold, the FICI [6] was 0.223 and the FICI-determined effect [6] was “Synergy (synergistic effect if FICI is ≤0.5)”. The MIC ([7]; Pseudomonas aeruginosa, strain PAOUWΔoprF) was 8 µg/mL, the “Potentiation (fold)” value [7] was 8 fold and the FICI [7] was 0.223. The FICI-determined effect [7] was “Synergy (synergistic effect if FICI is ≤0.5)”, the “Antibiotic MIC + RW01 100 mg/L” value ([7]; strain PAOUWΔoprF, MIC of the antibiotic with fixed 100 mg/L RW01) was 1 µg/mL and the MIC ([8]; Pseudomonas aeruginosa) was 8 µg/mL. The “Antibiotic MIC + RW01 100 mg/L” value [8] was 1 µg/mL, the “Potentiation (fold)” value [8] was 8 fold and the FICI [8] was 0.223. For the same compound, the FICI-determined effect [8] was “Synergy (synergistic effect if FICI is ≤0.5)”, the MIC ([9]; Pseudomonas aeruginosa) was 8 µg/mL and the “Antibiotic MIC + RW01 100 mg/L” value [9, 23] was 1 µg/mL. The FICI [9] was 0.160, the FICI-determined effect [9] was “Synergy (synergistic effect if FICI is ≤0.5)” and the MIC [10] was 2 µg/mL. The “Antibiotic MIC + RW01 100 mg/L” value [10] was 0.5 µg/mL, the “Potentiation (fold)” value [10] was 4 fold and the FICI [10] was 0.348. For the same compound, the FICI-determined effect [10] was “Synergy (synergistic effect if FICI is ≤0.5)”, the MIC ([11]; PAO1, read-out: MIC + RW01 in the presence of serum) was 4 µg/mL and the MIC ([11]; PAO1, read-out: MIC in the presence of serum) was 32 µg/mL.
With `CN(C)c1cc(NC(=O)CNC(C)(C)C)c(O)c2c1C[C@H]1C[C@H]3[C@H](N(C)C)C(O)=C(C(N)=O)C(=O)[C@@]3(O)C(O)=C1C2=O` [Tigecycline, tigecycline] the MIC [1] was 8 µg/mL, the “Antibiotic MIC + RW01 100 mg/L” value [1] was 1 µg/mL and the “Potentiation (fold)” value [1] was 8 fold. The FICI [1] was 0.320, the FICI-determined effect [1] was “Synergy (synergistic effect if FICI is ≤0.5)” and the MIC [2] was 8 µg/mL. For the same compound, the “Antibiotic MIC + RW01 100 mg/L” value [2] was 1 µg/mL, the “Potentiation (fold)” value [2] was 8 fold and the FICI [2] was 0.320. For the same compound, the FICI-determined effect [2] was “Synergy (synergistic effect if FICI is ≤0.5)”, the MIC [3] was 8 µg/mL and the “Antibiotic MIC + RW01 100 mg/L” value [3] was 2 µg/mL. For the same compound, the “Potentiation (fold)” value [3] was 4 fold, the FICI [3] was 0.348 and the FICI-determined effect [3] was “Synergy (synergistic effect if FICI is ≤0.5)”. For the same compound, the MIC [4] was 8 µg/mL, the “Antibiotic MIC + RW01 100 mg/L” value [4, 23] was 2 µg/mL and the “Potentiation (fold)” value [4] was 4 fold. For the same compound, the FICI [4] was 0.348, the FICI-determined effect [4] was “Synergy (synergistic effect if FICI is ≤0.5)” and the MIC ([5]; Pseudomonas aeruginosa, PAO1) was 8 µg/mL. For the same compound, the MIC [5, 21] was 2 µg/mL, the “Antibiotic MIC + RW01 100 mg/L” value ([5]; strain PAO1) was 2 µg/mL and the “Potentiation (fold)” value ([5]; strain PAO1) was 4 fold. The FICI ([5]; strain PAO1) was 0.445, the FICI-determined effect ([5]; strain PAO1) was “Synergy (synergistic effect if FICI is ≤0.5)” and the MIC [6, 22] was 8 µg/mL. For the same compound, the “Antibiotic MIC + RW01 100 mg/L” value [6, 23] was 1 µg/mL, the MIC [6] was 4 µg/mL and the “Potentiation (fold)” value [6] was 4 fold. For the same compound, the FICI [6] was 0.348, the FICI-determined effect [6] was “Synergy (synergistic effect if FICI is ≤0.5)” and the “Potentiation (fold)” value [7] was 8 fold. For the same compound, the FICI [7] was 0.223, the FICI-determined effect [7] was “Synergy (synergistic effect if FICI is ≤0.5)” and the MIC ([7]; strain PAOUWΔoprF) was 16 µg/mL. The “Antibiotic MIC + RW01 100 mg/L” value [8] was 1 µg/mL, the “Potentiation (fold)” value [8] was 8 fold and the FICI [8] was 0.223. The FICI-determined effect [8] was “Synergy (synergistic effect if FICI is ≤0.5)”, the MIC ([9]; Pseudomonas aeruginosa) was 16 µg/mL and the MIC [9] was 8 µg/mL. For the same compound, the “Potentiation (fold)” value ([9]; antibiotic MIC alone vs with RW01 100 mg/L) was 8 fold, the FICI [9] was 0.223 and the FICI-determined effect [9] was “Synergy (synergistic effect if FICI is ≤0.5)”. The MIC [10] was 1 µg/mL, the “Antibiotic MIC + RW01 100 mg/L” value [10] was 1 µg/mL and the “Potentiation (fold)” value [10] was 1 fold. The FICI [10] was 1.098, the FICI-determined effect [10] was “Indifference (indifferent effect if 1.0 < FICI ≤ 2.0)” and the MIC [12] was 24 µg/mL (≈ 41 µM). For the same compound, the MIC [13] was 24 µg/mL (≈ 41 µM), the MIC [14] was 48 µg/mL (≈ 82 µM) and the MIC [15] was 16 µg/mL (≈ 27.3 µM). The MIC [16] was 32 µg/mL (≈ 54.6 µM), the MIC [17] was 32 µg/mL (≈ 54.6 µM) and the MIC [18] was 32 µg/mL (≈ 54.6 µM). For the same compound, the MIC [19] was 16 µg/mL (≈ 27.3 µM) and the MIC [20] was 16 µg/mL (≈ 27.3 µM).
